We go through 17 compounds from US11730720B2, “ALK5 inhibitors” (THERAVANCE BIOPHARMA R&D IP, LLC, priority 2018, dated 2023).

The subject of assay [1] is TGF-β-stimulated SMAD3 phosphorylation in BEAS-2B cells. The experiment in a line: Cellular ALK5 potency assay, inhibition of TGF-β stimulated pSMAD3 formation in BEAS-2B cells. It counts as cell-based. Conditions: Homo sapiens, inhibition of TGF-β (10 ng/mL) stimulated pSMAD3 formation, 1 hour compound incubation, read-out: BEAS2B pIC50 (converted). The procedure: Example 255: Cellular ALK5 Potency Assay to Measure pIC50, Inhibition of TGF-β Stimulated pSMAD3 Formation in BEAS-2B Cells
The potency of compounds of the present disclosure for inhibition of TGF-β-stimulated SMAD3 phosphorylation was measured in BEAS-2B cells, a human lung epithelial cell line. TGF-β signals through activin receptor-like kinase 5 (ALK5) immediately prior to SMAD3 phosphorylation.
BEAS-2B cells were grown using 50% DMEM (Life Technologies) and 50% F-12 (Life Technologies) media, supplemented with 10% Fetal Bovine Serum (ATCC), 25 mM HEPES (Life Technologies), and 1×Pen-Strep (Life Technologies). Cells were cultured in a humidified incubator set at 37° C., 5% CO2, and trypsonized using 0.25% Trypsin with 0.5% polyvinylpyrrolidone (PVP).
For the assay, BEAS-2B cells were seeded at 7,500 cells/well (25 μL/well) in a 384-well plate and cultured overnight. Before dosing, growth media was aspirated and the wells were rinsed with HBSS Buffer (HBSS with Calcium and Magnesium, Life Technologies) supplemented with 25 mM HEPES (Life Technologies) and 1% Bovine Serum Albumin (Roche). Compounds were serially diluted in DMSO, then further diluted with supplemented HBSS Buffer (50 μL/well) to create a compound plate 3× of the final assay concentration, at 0.3% DMSO. The diluted compounds were then added to the cells (8 μL/well) and incubated at 37° C., 5% CO2 for 1 hour. After the compound incubation, TGF-β (R&D Systems) reconstituted in supplemented HBSS Buffer was added to the cells ([…], final concentration 10 ng/mL) and incubated for a further 30 minutes, after which the cells were immediately lysed with AlphaLISA lysis buffer (PerkinElmer). AlphaLISA Acceptor and Detector beads (PerkinElmer) were added 2 hours apart, then incubated overnight to be read the next day. The potency of the compound was determined through analysis of dose-dependent quantified changes in pSMAD3 signal from baseline (non-compound treated TGF-β stimulated cells). Data are expressed as pIC50 (negative decadic logarithm IC50) values.

Assay [2] has as its target T1, recombinant human ALK5 (TGF-βR1) protein (Homo sapiens, UniProt P36897).
T1 construct: purchased Life Technologies PR9075A
T1 sequence (P36897 34-503): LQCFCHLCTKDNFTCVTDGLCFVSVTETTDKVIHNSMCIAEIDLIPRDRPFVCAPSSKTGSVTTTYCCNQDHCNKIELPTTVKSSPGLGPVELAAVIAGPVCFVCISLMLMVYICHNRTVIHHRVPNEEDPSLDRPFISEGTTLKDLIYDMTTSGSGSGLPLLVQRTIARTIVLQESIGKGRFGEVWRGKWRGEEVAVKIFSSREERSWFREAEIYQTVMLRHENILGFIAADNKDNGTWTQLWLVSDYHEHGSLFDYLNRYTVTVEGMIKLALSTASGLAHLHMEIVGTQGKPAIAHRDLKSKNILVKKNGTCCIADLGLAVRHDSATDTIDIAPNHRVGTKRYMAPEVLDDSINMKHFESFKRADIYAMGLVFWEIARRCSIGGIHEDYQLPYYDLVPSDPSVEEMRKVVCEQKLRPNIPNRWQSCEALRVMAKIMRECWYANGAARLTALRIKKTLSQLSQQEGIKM
The experiment in a line: Biochemical ALK5 (TGF-βR1) assay to measure pKi (LANCE Ultra ULight kinase assay). The note with it: apparent pKi, converted from pIC50 using the Cheng-Prusoff equation. How it is done: Example 254: Biochemical ALK5 (TGF-βR1) Assay to Measure pKi
The assays were performed in a 384-well plate (24 columns×16 wells/rows). An Echo® 550 Liquid Handler (Labcyte) was used to prepare various intermediate concentrations of compounds of the present disclosure in 100% DMSO. From the intermediate concentrations, a range of concentrations (from 10 μM to 25 pM corresponding to volumes up to 105 nL) were prepared and ejected into a final assay plate to be used to create individual dose response curves for each of the subject compounds. To a separate column within the assay plate, 105 nL of DMSO in each well was used to establish a maximum assay signal. Additionally, 105 nL of 100 μM SD-208, a selective TGF-βR1 inhibitor (Catalog #S7624, Selleck Chemicals), was used in another column of wells to establish a minimal assay signal.
With a multidrop dispenser, 8 μL of enzyme mixture (1.25× final) was added to each well. The enzyme mixture consisted of 250 pM ALK5 enzyme and 62.5 nM peptide substrate (LANCE® (lanthanide chelate excite) Ultra ULight™-DNA Topoisomerase 2-alpha (Thr1342)) prepared in assay buffer (50 mM HEPES, 10 mM MgCl2, 1 mM EGTA, 0.01% Tween-20, pH 7.5 at room temperature) with 2 mM DTT added prior to use. The plate was then sealed with an adhesive seal and allowed to equilibrate for 60 minutes at room temperature.
Next, 2 μL of 125 μM ATP (5× final, 125 μM ATP prepared in assay buffer with 2 mM DTT) was added to the incubated mixtures, covered with a MicroClime® Environmental Lid (Product No. LLS-0310, Labcyte) and immediately transferred to 37° C. The reactions were allowed to proceed at 37° C. for 60 minutes before terminating with the addition of 10 μL of detection antibody (LANCE® (lanthanide chelate excite) Ultra Europium-anti-phospo-DNA Topoisomerase 2-alpha (Thr1342)) in detection mixture (12 mM EDTA, 4 nM detection antibody prepared in detection buffer (50 mM Tris-HCl, 150 mM NaCl, 0.5% BSA (Fraction V), pH 7.0)) at room temperature. The plate was then read on a Perkin Elmer EnVision Plate Reader using europium specific reader settings with excitation and emission wavelengths set to 320 or 340 nm and 665 nm, respectively.
For dose-response analyses, percent inhibition versus compound concentrations were plotted, and pIC50 values were determined from a 4-parameter robust fit model with GraphPad Prism V5 Software (GraphPad Software, Inc., La Jolla, Calif.). This model obtains pIC50 values by fitting the sigmodial dose-response (variable slope) equation to the data. Results were expressed as pIC50 (negative logarithm of IC50) and subsequently converted to pKi (negative logarithm of dissociate constant, K) using the Cheng-Prusoff equation.
The higher the value of pKi (lower value of Ki), the greater the inhibition of ALK5 activity.

With `NCCn1cc(-c2cnc3ccc(-c4nc[nH]c4-c4cc(Cl)c(F)cc4F)cc3c2)cn1` [Compound 22-3, 2-[4-[6-[5-(5-chloro-2,4-difluoro-phenyl)-1H-imidazol-4-yl]-3-quinolyl]pyrazol-1-yl]ethanamine], the IC50 in assay [1] is 25.1 to 158 nM. Besides, the Ki in assay [2] was 0.0398 to 0.316 nM.

As to `CC(C)N1CCN(CCNc2cnc3ccc(-c4c[nH]nc4-c4cc(Cl)c(F)cc4F)nc3c2)CC1` [Compound 6-1, 6-(3-(5-chloro-2,4-difluorophenyl)-1H-pyrazol-4-yl)-N-(2-(4-isopropylpiperazin-1-yl)ethyl)-1,5-naphthyridin-3-amine], in assay [1], the IC50 was 25.1 to 158 nM. The Ki in assay [2] was 0.0398 to 0.316 nM.

Turning to `Fc1ccc(Cl)cc1-c1n[nH]cc1-c1ccc2ncc(NCCN3CCCC3)cc2n1` [Compound 1-14, 6-[3-(5-chloro-2-fluoro-phenyl)-1H-pyrazol-4-yl]-N-(2-pyrrolidin-1-ylethyl)-1,5-naphthyridin-3-amine], in assay [1], the IC50 is no more than 20 nM. In addition, the Ki in assay [2] is 0.0398 to 0.316 nM.

As to `CN1CCC(N(C)c2cnc3ccc(-c4c[nH]nc4-c4cc(Cl)c(F)cc4F)nc3c2)CC1` [Compound 6-16, 6-[3-(5-chloro-2,4-difluoro-phenyl)-1H-pyrazol-4-yl]-N-methyl-N-(1-methyl-4-piperidyl)-1,5-naphthyridin-3-amine], the IC50 in assay [1] is 25.1 to 158 nM. In addition, in assay [2], the Ki was 0.398 to 3.16 nM.

Regarding `Fc1ccc(Cl)cc1-c1n[nH]cc1-c1ccc2ncc(-c3cnn(CCNCc4ccccc4)c3)cc2n1` [Compound 1-95, N-benzyl-2-[4-[6-[3-(5-chloro-2-fluoro-phenyl)-1H-pyrazol-4-yl]-1,5-naphthyridin-3-yl]pyrazol-1-yl]ethanamine], in assay [1], the IC50 is 25.1 to 158 nM. Also, the Ki in assay [2] is 0.0398 to 0.316 nM.

On to `Fc1cc(F)c(-c2n[nH]cc2-c2ccc3ncc(-c4nc5n(n4)CCNC5)cc3n2)cc1Cl` [Compound 6-46, 2-[3-(5-chloro-2,4-difluoro-phenyl)-1H-pyrazol-4-yl]-7-(5,6,7,8-tetrahydro-[1,2,4]triazolo[1,5-a]pyrazin-2-yl)-1,5-naphthyridine], for which the IC50 in assay [1] was 25.1 to 158 nM. Moreover, the Ki in assay [2] is 0.0398 to 0.316 nM.

As to `COC(=O)c1cnc2ccc(-c3[nH]nnc3-c3cc(Cl)ccc3F)nc2c1` [Compound 5-1, methyl 6-(4-(5-chloro-2-fluorophenyl)-1H-1,2,3-triazol-5-yl)-1,5-naphthyridine-3-carboxylate], in assay [1], the IC50 was 25.1 to 158 nM. In assay [2], the Ki is 0.398 to 3.16 nM.

For `NCCN1CCN(c2cnc3ccc(-c4c[nH]nc4-c4cc(Cl)ccc4F)nc3c2)CC1` [Compound 1-57, 2-[4-[6-[3-(5-chloro-2-fluoro-phenyl)-1H-pyrazol-4-yl]-1,5-naphthyridin-3-yl]piperazin-1-yl]ethanamine], the IC50 in assay [1] was 25.1 to 158 nM. Also, the Ki in assay [2] is 0.0398 to 0.316 nM.

In the case of `CN(C)CCN1CCN(c2cnc3ccc(-c4c[nH]nc4-c4cc(Cl)ccc4F)nc3c2)CC1` [Compound 1-71, 2-[4-[6-[3-(5-chloro-2-fluoro-phenyl)-1H-pyrazol-4-yl]-1,5-naphthyridin-3-yl]piperazin-1-yl]-N,N-dimethyl-ethanamine], the IC50 in assay [1] was no more than 20 nM. For the same compound, in assay [2], the Ki is no more than 0.0316 nM.

With `Fc1cc(F)c(-c2[nH]cnc2-c2ccc3ncc(NCCN4CCNCC4)cc3n2)cc1Cl` [Compound 7-1, 6-(5-(5-chloro-2,4-difluorophenyl)-1H-imidazol-4-yl)-N-(2-(piperazin-1-yl)ethyl)-1,5-naphthyridin-3-amine], the IC50 in assay [1] is 25.1 to 158 nM. Besides, in assay [2], the Ki is 0.0398 to 0.316 nM.

With `CNCCn1cc(-c2cnc3ccc(-c4nn[nH]c4-c4cc(Cl)ccc4F)cc3c2)cn1` [Compound 18-1, 2-(4-(6-(5-(5-chloro-2-fluorophenyl)-1H-1,2,3-triazol-4-yl)quinolin-3-yl)-1H-pyrazol-1-yl)-N-methylethan-1-amine], in assay [1], the IC50 was 25.1 to 158 nM. Further, in assay [2], the Ki was no more than 0.0316 nM.

As for `OCCn1cc(-c2cnc3ccc(-c4c[nH]nc4-c4ccc(F)c(F)c4)nc3c2)cn1` [Compound 8-21, 2-(4-(6-(3-(3,4-difluorophenyl)-1H-pyrazol-4-yl)-1,5-naphthyridin-3-yl)-1H-pyrazol-1-yl)ethan-1-ol], the IC50 in assay [1] was no more than 20 nM. Further, the Ki in assay [2] was 0.0398 to 0.316 nM.

Turning to `Fc1ccc(Cl)cc1-c1n[nH]cc1-c1ccc2ncc(N3CCC(N4CCCC4)CC3)cc2n1` [Compound 1-44, 2-[3-(5-chloro-2-fluoro-phenyl)-1H-pyrazol-4-yl]-7-(4-pyrrolidin-1-yl-1-piperidyl)-1,5-naphthyridine], the IC50 in assay [1] is 25.1 to 158 nM. The Ki in assay [2] is 0.0398 to 0.316 nM.

For `Fc1ccc(Cl)cc1-c1nc2ccccn2c1-c1ccc2ncc(N3CCNCC3)cc2c1` [Compound 19-4, 6-(2-(5-chloro-2-fluorophenyl)imidazo[1,2-a]pyridin-3-yl)-3-(piperazin-1-yl)quinoline], the IC50 in assay [1] is 200 to 1260 nM. Further, in assay [2], the Ki was 0.0398 to 0.316 nM.

Turning to `O=C(O)Cn1cc(-c2cnc3ccc(-c4c[nH]nc4-c4ccc(F)c(F)c4)nc3c2)cn1` [Compound 8-18, 2-[4-[6-[3-(3,4-difluorophenyl)-1H-pyrazol-4-yl]-1,5-naphthyridin-3-yl]pyrazol-1-yl]acetic acid], the IC50 in assay [1] was 25.1 to 158 nM. Also, the Ki in assay [2] was 0.398 to 3.16 nM.

For `CNC(=O)[C@@H]1CN(c2cnc3ccc(-c4c[nH]nc4-c4cc(Cl)ccc4F)nc3c2)CCN1` [Compound 1-58, (2S)-4-[6-[3-(5-chloro-2-fluoro-phenyl)-1H-pyrazol-4-yl]-1,5-naphthyridin-3-yl]-N-methyl-piperazine-2-carboxamide], in assay [1], the IC50 is 25.1 to 158 nM. The Ki in assay [2] was 0.0398 to 0.316 nM.

Take `Fc1ccc(Cl)cc1-c1n[nH]cc1-c1ccc2ncc(NCCN3CCNCC3)cc2n1` [Compound 1-21, 6-[3-(5-chloro-2-fluoro-phenyl)-1H-pyrazol-4-yl]-N-(2-piperazin-1-ylethyl)-1,5-naphthyridin-3-amine]: the IC50 in assay [1] was 25.1 to 158 nM. Moreover, in assay [2], the Ki was 0.0398 to 0.316 nM.
